Laboratory results as given in article PMC3223731, “Environment sensing and response mediated by ABC transporters” (BMC Genomics, 2011).

How the values were obtained:
Assay type in all cases: binding
RPA4029 = target: T1, RPA4029 (Rhodopseudomonas palustris, UniProt Q6N2M1); assay: fluorescence thermal shift (SYPRO orange); details: 100x ligand over protein (5 or 10 µM protein); 100 mM HEPES, 150 mM NaCl, pH 7.5
T1 construct: gene TX73_020875; mature form, signal peptide removed; N-terminal 6xHis-TEV tag retained; E. coli
T1 sequence (Q6N2M1 28-392): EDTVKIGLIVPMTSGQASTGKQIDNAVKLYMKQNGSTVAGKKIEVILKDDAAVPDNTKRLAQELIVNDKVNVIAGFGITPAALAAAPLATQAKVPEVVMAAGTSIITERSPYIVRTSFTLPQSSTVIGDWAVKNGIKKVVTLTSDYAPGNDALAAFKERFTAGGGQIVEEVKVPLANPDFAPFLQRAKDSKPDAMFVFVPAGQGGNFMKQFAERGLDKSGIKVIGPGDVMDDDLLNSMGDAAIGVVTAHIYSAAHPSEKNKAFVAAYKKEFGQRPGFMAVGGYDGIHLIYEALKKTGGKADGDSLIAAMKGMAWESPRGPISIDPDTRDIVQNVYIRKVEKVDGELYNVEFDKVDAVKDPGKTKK

RPA0668 (hbaE) = target: T2, RPA0668 (hbaE) (Rhodopseudomonas palustris, UniProt G3XCQ4); assay: fluorescence thermal shift (SYPRO orange); details: 100x ligand over protein (5 or 10 µM protein); 100 mM HEPES, 150 mM NaCl, pH 7.5
T2 construct: mature form, signal peptide removed; N-terminal 6xHis-TEV tag retained; E. coli
T2 sequence (G3XCQ4 entry or part of it): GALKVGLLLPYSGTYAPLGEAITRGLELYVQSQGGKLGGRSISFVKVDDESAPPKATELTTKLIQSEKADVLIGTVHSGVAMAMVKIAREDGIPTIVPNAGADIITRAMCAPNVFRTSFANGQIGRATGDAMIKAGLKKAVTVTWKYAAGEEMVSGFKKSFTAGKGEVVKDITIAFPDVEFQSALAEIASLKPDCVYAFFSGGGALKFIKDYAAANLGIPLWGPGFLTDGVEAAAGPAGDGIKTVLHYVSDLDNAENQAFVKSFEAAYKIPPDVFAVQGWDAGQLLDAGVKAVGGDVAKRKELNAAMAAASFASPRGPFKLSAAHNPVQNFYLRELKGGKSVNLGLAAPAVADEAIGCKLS

RPA0985 = target: T3, RPA0985 (Rhodopseudomonas palustris, UniProt Q6NB45); assay: fluorescence thermal shift (SYPRO orange); details: 100x ligand over protein (5 or 10 µM protein); 100 mM HEPES, 150 mM NaCl, pH 7.5
T3 construct: mature form, signal peptide removed; N-terminal 6xHis-TEV tag retained; E. coli
T3 sequence (Q6NB45 23-390): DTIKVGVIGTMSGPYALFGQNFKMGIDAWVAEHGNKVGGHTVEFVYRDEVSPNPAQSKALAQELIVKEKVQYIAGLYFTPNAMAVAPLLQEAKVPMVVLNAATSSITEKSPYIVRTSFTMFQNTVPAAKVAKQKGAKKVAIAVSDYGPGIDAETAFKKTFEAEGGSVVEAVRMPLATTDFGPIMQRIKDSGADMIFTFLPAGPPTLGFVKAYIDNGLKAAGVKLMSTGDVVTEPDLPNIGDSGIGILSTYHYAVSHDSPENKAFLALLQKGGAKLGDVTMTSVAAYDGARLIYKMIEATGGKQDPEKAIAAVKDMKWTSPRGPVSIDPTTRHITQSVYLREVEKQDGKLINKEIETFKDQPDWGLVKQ

RPA1789 = target: T4, RPA1789 (Rhodopseudomonas palustris, UniProt Q6N8W4); assay: fluorescence thermal shift (SYPRO orange); details: 100x ligand over protein (5 or 10 µM protein); 100 mM HEPES, 150 mM NaCl, pH 7.5
T4 construct: mature form, signal peptide removed; N-terminal 6xHis-TEV tag retained; E. coli
T4 sequence (Q6N8W4 27-385): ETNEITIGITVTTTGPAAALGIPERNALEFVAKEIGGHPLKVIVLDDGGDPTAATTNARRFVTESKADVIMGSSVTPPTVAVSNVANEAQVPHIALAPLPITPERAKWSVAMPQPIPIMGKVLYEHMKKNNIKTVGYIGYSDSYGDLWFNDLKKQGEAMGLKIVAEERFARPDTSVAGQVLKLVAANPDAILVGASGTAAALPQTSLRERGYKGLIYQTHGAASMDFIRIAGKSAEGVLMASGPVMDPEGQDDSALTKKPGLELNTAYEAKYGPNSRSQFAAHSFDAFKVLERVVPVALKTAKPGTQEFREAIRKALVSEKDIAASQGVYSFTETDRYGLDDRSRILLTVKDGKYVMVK

RPA0058 = target: T5, RPA0058 (Rhodopseudomonas palustris, UniProt Q6NDP7); assay: fluorescence thermal shift (SYPRO orange); details: 100x ligand over protein (5 or 10 µM protein); 100 mM HEPES, 150 mM NaCl, pH 7.5
T5 construct: gene ugpB; mature form, signal peptide removed; N-terminal 6xHis-TEV tag retained; E. coli
T5 sequence (Q6NDP7 24-442): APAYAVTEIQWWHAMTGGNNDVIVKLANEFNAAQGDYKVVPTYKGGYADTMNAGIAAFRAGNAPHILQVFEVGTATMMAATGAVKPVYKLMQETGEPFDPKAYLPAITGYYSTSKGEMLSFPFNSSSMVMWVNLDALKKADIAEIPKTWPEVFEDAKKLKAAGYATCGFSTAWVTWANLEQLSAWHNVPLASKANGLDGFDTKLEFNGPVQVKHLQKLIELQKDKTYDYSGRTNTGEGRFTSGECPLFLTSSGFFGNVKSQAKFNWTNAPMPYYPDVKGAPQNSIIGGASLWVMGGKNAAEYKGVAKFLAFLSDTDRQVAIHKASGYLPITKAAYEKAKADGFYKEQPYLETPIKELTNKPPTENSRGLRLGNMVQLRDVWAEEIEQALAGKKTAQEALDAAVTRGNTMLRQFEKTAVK

RPA3810 = target: T6, RPA3810 (Rhodopseudomonas palustris, UniProt Q6N384); assay: fluorescence thermal shift (SYPRO orange); details: 100x ligand over protein (5 or 10 µM protein); 100 mM HEPES, 150 mM NaCl, pH 7.5
T6 construct: gene TX73_019730; mature form, signal peptide removed; N-terminal 6xHis-TEV tag retained; E. coli
T6 sequence (Q6N384 23-368): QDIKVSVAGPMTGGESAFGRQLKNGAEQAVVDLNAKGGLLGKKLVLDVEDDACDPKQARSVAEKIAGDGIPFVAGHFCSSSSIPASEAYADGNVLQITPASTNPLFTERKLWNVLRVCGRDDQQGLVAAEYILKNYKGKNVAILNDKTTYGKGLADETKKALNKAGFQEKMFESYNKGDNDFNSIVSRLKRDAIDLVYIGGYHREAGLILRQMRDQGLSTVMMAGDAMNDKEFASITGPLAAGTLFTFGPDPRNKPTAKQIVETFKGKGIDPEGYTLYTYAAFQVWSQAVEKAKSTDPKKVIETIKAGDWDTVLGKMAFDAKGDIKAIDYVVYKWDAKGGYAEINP

RPA4780 = target: T7, RPA4780 (Rhodopseudomonas palustris, UniProt Q6N0I2); details: 100x ligand over protein (5 or 10 µM protein); 100 mM HEPES, 150 mM NaCl, pH 7.5
T7 construct: gene pstS; mature form, signal peptide removed; N-terminal 6xHis-TEV tag retained; E. coli
T7 sequence (Q6N0I2 22-336): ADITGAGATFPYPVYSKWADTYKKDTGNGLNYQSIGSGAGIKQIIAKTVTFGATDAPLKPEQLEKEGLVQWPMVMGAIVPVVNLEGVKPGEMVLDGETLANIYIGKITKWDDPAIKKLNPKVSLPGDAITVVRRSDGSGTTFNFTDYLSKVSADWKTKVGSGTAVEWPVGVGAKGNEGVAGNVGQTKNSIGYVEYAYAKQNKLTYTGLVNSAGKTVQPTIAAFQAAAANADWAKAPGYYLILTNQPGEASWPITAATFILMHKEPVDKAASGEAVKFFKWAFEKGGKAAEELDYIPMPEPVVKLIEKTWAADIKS

RPA2014 = target: T8, RPA2014 (Rhodopseudomonas palustris, UniProt Q6N890); assay: fluorescence thermal shift (SYPRO orange); details: 100x ligand over protein (5 or 10 µM protein), 100 mM HEPES, 150 mM NaCl, pH 7.5
T8 construct: gene TX73_010380; mature form, signal peptide removed; N-terminal 6xHis-TEV tag retained; E. coli
T8 sequence (Q6N890 31-371): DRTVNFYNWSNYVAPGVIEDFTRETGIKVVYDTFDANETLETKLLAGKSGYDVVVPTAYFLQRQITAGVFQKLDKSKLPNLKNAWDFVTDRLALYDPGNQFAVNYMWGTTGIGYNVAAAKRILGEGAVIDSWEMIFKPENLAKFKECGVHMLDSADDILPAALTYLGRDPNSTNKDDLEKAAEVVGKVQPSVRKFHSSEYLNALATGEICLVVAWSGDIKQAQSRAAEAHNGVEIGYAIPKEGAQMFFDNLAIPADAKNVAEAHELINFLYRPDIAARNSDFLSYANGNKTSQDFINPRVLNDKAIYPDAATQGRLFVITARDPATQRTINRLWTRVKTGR

In the case of `O=C(O)c1ccc(O)cc1` [4-hydroxybenzoic acid], the ΔTm (RPA4029) was 17 °C, the ΔTm (RPA0668 (hbaE)) was “closely related derivatives, 4-hydroxybenzoic acid, salicylate, and benzaldehyde” and the ΔTm (RPA0985) was 29.5 °C.

`O=C(O)/C=C/c1ccccc1` [cinnamic acid] was tested, and the ΔTm (RPA1789) was “one protein bound p-coumaric acid, ferulic acid, and cinnamic acid with good affinities”.

For `COc1cc(/C=C/C(=O)O)ccc1O` [ferulic acid], the ΔTm (RPA1789) was “one protein bound p-coumaric acid, ferulic acid, and cinnamic acid with good affinities”.

With `O=P(O)(O)OC[C@H](O)CO` [glycerol-3-phosphate] the ΔTm (RPA0058) was “RPA0058 and RPA4780 exhibited specific stabilization by glycerol-3-phosphate and phosphate, respectively”.

For `NCC(=O)O` [glycine], the ΔTm (RPA3810) was “RPA3810, shifted primarily with amino acids with preferences for alanine, glycine and serine”.

For `O=C(O)/C=C/c1ccc(O)cc1` [p-coumaric acid], the ΔTm (RPA1789) was “one protein bound p-coumaric acid, ferulic acid, and cinnamic acid with good affinities”.

With `O=P(O)(O)O` [phosphate] the ΔTm (RPA4780) was “RPA0058 and RPA4780 exhibited specific stabilization by glycerol-3-phosphate and phosphate, respectively”.

`NCCCCN` [putrescine] was tested, and the ΔTm (RPA2014) was “indeed shifted with putrescine preferentially over spermine”.

In the case of `O=C(O)c1ccccc1O` [salicylic acid], the ΔTm (RPA0668 (hbaE)) was “closely related derivatives, 4-hydroxybenzoic acid, salicylate, and benzaldehyde”.

In the case of `NCCCNCCCCNCCCN` [spermine], the ΔTm (RPA2014; low affinity) was “spermine still binds this protein with low affinity in the FTS assay”.
